According to US5378716A, “Pyrazol-1-yl phenoxyacetic acid compounds which have useful pharmaceutical utility” (Ono Pharmaceutical Co., Ltd., priority 1992, dated 1995):

Key:
[1] = target: T1, PGI2 receptor in the human blood platelet membrane fraction (Homo sapiens, UniProt P43119); test: Inhibitory activity on binding of [^3 H]-iloprost to PGI2 receptor in the human blood platelet membrane fraction; conditions: 10 nM [^3 H]-iloprost, human blood platelet membrane fraction (0.3 mg protein), pH 7.4, 24° C., 30 min; read-out: IC50, inhibition of [^3 H]-iloprost binding to PGI2 receptor
T1 construct: human blood platelet membrane fraction (0.3 mg protein) was added; from tissue; host or cells: human blood platelets (membrane fraction)
Experimental: i) Inhibitory activity on binding of [^3 H]-iloprost to PGI2 receptor in the human blood platelet membrane fraction
50 mM Tris-HCl buffer (pH 7.4) containing 15 mM MgCl2, 5 mM EDTA and 10 nM [^3 H]-iloprost were used as reaction medium. To 0.2 ml of the reaction medium, human blood platelet membrane fraction (0.3 mg protein) was added with or without a test compound. The mixture was incubated at 24° C. for 30 min. After incubation, 4 ml of ice-cold 10 mM Tris-HCl buffer (pH 7.4) was added to the reaction mixture, the mixture was filtered through Whatman GF/B glass fiber filter and washed 4 times with 4 ml of ice-cold 10 mM Tri-HCl buffer (pH 7.4) to separate bound and free [^3 H]-iloprost. After washing, the filter was dried and radioactivity was counted. Non-specific binding was obtained by performing parallel binding experiments in the presence of 10 μM non-labelled iloprost. Specific binding was calculated by subtracting the non-specific binding from the total binding.
The inhibitory effect of a test compound was calculated from the following equation.
The percentage of inhibition (%)=100-(B1 /B0 ×100)
B1 :specific [^3 H]-iloprost binding in the presence of a test compound
B0 :specific [^3 H]-iloprost binding in the absence of a test compound

[2] = test system: human blood platelet aggregation; test: Inhibitory effect on human blood platelet aggregation (ADP-induced, platelet-rich plasma); format: cell-based; conditions: human PRP (5×10^5 platelets/mm^3), compound added 1 minute prior to ADP (4 μm), read-out: IC50, inhibition of human blood platelet aggregation
Experimental: ii) Inhibitory effect on human blood platelet aggregation
Platelet-rich plasma (PRP) was prepared from human blood (5×10^5 platelets/mm^3) and a test compound was added to PRP 1 minute prior to the addition of ADP (4 μm). The aggregation was monitored using a platelet aggregometer (NBS HEMA TRACER 601, Niko Bioscience, Japan).

T1 sequence (P43119 whole entry): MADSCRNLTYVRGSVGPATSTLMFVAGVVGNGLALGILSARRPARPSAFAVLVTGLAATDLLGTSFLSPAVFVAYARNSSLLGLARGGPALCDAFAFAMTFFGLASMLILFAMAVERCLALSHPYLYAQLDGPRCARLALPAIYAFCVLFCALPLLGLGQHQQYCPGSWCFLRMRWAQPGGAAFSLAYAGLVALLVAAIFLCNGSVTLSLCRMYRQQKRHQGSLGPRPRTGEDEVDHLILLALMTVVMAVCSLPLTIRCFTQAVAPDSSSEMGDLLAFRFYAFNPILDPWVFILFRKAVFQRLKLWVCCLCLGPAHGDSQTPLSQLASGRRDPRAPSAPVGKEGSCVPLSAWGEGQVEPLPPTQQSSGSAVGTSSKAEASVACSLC

O=C(O)COc1ccccc1CCCCn1cc(C(c2ccccc2)c2cccnc2)cn1 (stereo not drawn) [17(n)]
IC50 [1]: 2000 nM

O=C(O)COc1cccc(CCCc2cc(C(c3ccccc3)c3ccccc3)on2)c1 [Example 19, 3-[3-(5-diphenylmethylisoxazol-3-yl)propyl]phenoxyacetic acid]
IC50 [2]: 160 nM | IC50 [1]: 120 nM

CCCC(CCCc1cccc(OCC(=O)O)c1)NOC(c1ccccc1)c1ccccc1 (stereo not drawn) [Example 6, 3-(4-Diphenylmethyloxyaminoheptyl)phenoxyacetic acid]
IC50 [1]: 3000 nM

O=C(O)COc1cccc(CCCON=C(c2ccccc2)c2cccnc2)c1 [17(x), 3-[3-[1-Phenyl-1-(3-pyridyl)methylideneaminooxy]propyl]phenoxyacetic acid]
IC50 [1]: 5000 nM

O=C(O)COc1cccc(CCCCOC(c2ccccc2)c2ccccc2)c1 [Example 12, 3-(4-Diphenylmethyloxybutyl)phenoxyacetic acid]
IC50 [2]: 5000 nM | IC50 [1]: 1300 nM

O=C(O)COc1cccc(CCCC(=O)N(Cc2ccccc2)Cc2ccccc2)c1 [8(l), 3-[3-(N,N-Dibenzylaminocarbonyl)propyl]phenoxyacetic acid]
IC50 [1]: 1500 nM

O=C(O)COc1cccc(CCCn2ncc(C(c3ccccc3)c3ccccc3)n2)c1 [17(b), 3-[3-(4-Diphenylmethyl-1,2,3-triazol-2-yl)propyl]phenoxyacetic acid]
IC50 [2]: 240 nM | IC50 [1]: 360 nM

O=C(O)COc1cccc(CCCc2noc(C(c3ccccc3)c3ccccc3)n2)c1 [Example 23, 3-[3-(5-diphenylmethyl-1,2,4-oxadiazol-3-yl)propyl]phenoxyacetic acid]
IC50 [2]: 370 nM | IC50 [1]: 1500 nM

CCCC(CCCc1cccc(OCC(=O)O)c1)=NOC(c1ccccc1)c1ccccc1 [Example 4, 3-(4-Diphenylmethyloxyiminoheptyl)phenoxyacetic acid]
IC50 [2]: 3700 nM | IC50 [1]: 1600 nM

O=C(O)COc1cccc(OCCn2cc(C(c3ccccc3)c3ccccc3)cn2)c1 [17(cc), 3-[2-(4-Diphenylmethylpyrazol-1-yl)ethyloxy]phenoxyacetic acid]
IC50 [2]: 410 nM | IC50 [1]: 260 nM

O=C(O)COc1cccc(CCCC(=O)NN(c2ccccc2)c2ccccc2)c1 [8(o), 3-[3-[(N,N-Diphenylamino)aminocarbonyl]propyl]phenoxyacetic acid]
IC50 [2]: 970 nM | IC50 [1]: 460 nM

O=C(O)COc1cccc(CCCn2cc(C(c3ccccc3)c3ccccc3)cn2)c1 [Example 17, 3-[3-(4-diphenylmethylpyrazol-1-yl)propyl]phenoxyacetic acid]
IC50 [2]: 420 nM | IC50 [1]: 150 nM

O=C(O)COc1cccc(CCCc2nc(C(c3ccccc3)c3ccccc3)no2)c1 [Example 21, 3-[3-(3-diphenylmethyl-1,2,4-oxadiazol-5-yl)propyl]phenoxyacetic acid]
IC50 [1]: 4400 nM

O=C(O)COc1cccc(CCCn2cc(C(c3ccccc3)c3ccccc3)nn2)c1 [17(c), 3-[3-(4-Diphenylmethyl-1,2,3-triazol-1-yl)propyl]phenoxyacetic acid]
IC50 [2]: 470 nM | IC50 [1]: 270 nM

O=C(O)COc1cccc(CCCC=NOC(c2ccccc2)c2ccccc2)c1 [Example 2, 3-(4-Diphenylmethyloxyiminobutyl)phenoxyacetic acid]
IC50 [1]: 4800 nM

O=C(O)COc1cccc(/C=C/Cn2cc(C(c3ccccc3)c3ccccc3)cn2)c1 [17(i), 3-[3-(4-Diphenylmethylpyrazol-1-yl)-1-propenyl]phenoxyacetic acid]
IC50 [1]: 220 nM

Cc1c(/C=C/Cn2cc(C(c3ccccc3)c3ccccc3)cn2)cccc1OCC(=O)O [17(s), 2-Methyl-3-[3-(4-diphenylmethylpyrazol-1-yl)-1-propenyl]phenoxyaceticacid]
IC50 [2]: 3200 nM | IC50 [1]: 780 nM

O=C(O)COc1cccc(CCCC(=O)NC(c2ccccc2)c2ccccc2)c1 [8(n), 3-(3-Diphenylmethylaminocarbonylpropyl)phenoxyacetic acid]
IC50 [2]: 3100 nM | IC50 [1]: 2000 nM

COC(=O)COc1cccc(CCCC(=O)OC(c2ccccc2)c2ccccc2)c1 [Example 15, Methyl 3-(3-diphenylmethyloxycarbonylpropyl)phenoxyacetate]
IC50 [1]: 4000 nM
